The values below come from publication PMC10298926, “Biophysical Characterization of the Binding Mechanism between the MATH Domain of SPOP and Its Physiological Partners” (International Journal of Molecular Sciences, 2023).

What all share (assay): Stopped-flow pseudo-first-order binding kinetics
The target in one assay is SPOP MATH Y88A (Homo sapiens, UniProt O43791, Y87A, form not given). Particulars: dansylated Puc, 298 K. The protocol:
(§1) To quantitatively address the role of specific residues in the binding mechanism of SPOP MATH, we resorted to taking advantage of the site-directed mutagenesis and generated ten site-directed mutants corresponding to the residues located in the binding pocket of the SPOP MATH domain. In particular, we produced a set of single mutants where residues R71, Y88, F103, Y124, F125, K130, D131, W132, F134, and K135 were substituted with alanine.
(§2) Binding kinetic experiments were performed on an Applied Photophysics DX-17MV stopped-flow apparatus (Applied Photophysics, Leatherhead, UK). Pseudo-first-order binding experiments were performed by mixing a constant concentration (2 μM) of MATH domain with increasing dansylated peptides concentrations, from 2 to 10 μM of Puc and MacroH2A, and 2 to 40 µM of PTEN. The samples were excited at 280 nm, and the emission fluorescence was recorded by using a bandpass 320 nm cutoff filter. The experiments were performed at 298 K. For ionic strength dependence with Puc and MacroH2A, the buffers used were 50 mM sodium-HEPES, pH 7.2, supplemented with 50 mM, 100 mM, 200 mM, or 500 mM of sodium chloride (NaCl). For the PTEN binding salt dependence experiments, lower concentrations of salt were added for the previous buffer list mentioned (10 mM, 25 mM, and 50 mM of sodium chloride). For each acquisition, five traces were collected, averaged, and satisfactorily fitted to a single exponential equation.

In a further assay the target is SPOP MATH Y125A (Homo sapiens, UniProt O43791, Y123A, form not given). The settings on record: dansylated Puc, 298 K. Here is the method: as §1, §2
The target of the next assay is SPOP MATH F134A (Homo sapiens, UniProt O43791, F133A, form not given). Particulars: dansylated Puc, 298 K. Here is the method: as §1, §2
In another assay the target is T1, SPOP MATH K135A (Homo sapiens, UniProt O43791, C159S/C44S/C68S/C93S/K134A).
T1 construct: engineered MATH domain of SPOP protein (residues 1–182); His-tag; made in house; host or cells: Escherichia coli BL21 (DE3)
Particulars: dansylated Puc, 298 K. The protocol:
as §1, §2

The target of another assay is SPOP MATH R71A (Homo sapiens, UniProt O43791, R70A, form not given). Particulars: dansylated Puc, 298 K. Here is the method: as §1, §2
Another assay addresses SPOP MATH K130A (Homo sapiens, UniProt O43791, K129A, form not given). Particulars: dansylated Puc, 298 K. The protocol: as §1, §2
The target in the next assay is SPOP MATH D131A (Homo sapiens, UniProt O43791, D130A, form not given). The settings on record: dansylated Puc, 298 K. Here is the method: as §1, §2
For a further assay, the target named is SPOP MATH WT (Homo sapiens, UniProt O43791). The settings on record: 298 K. Here is the method: To infer the mechanism of recognition of SPOP MATH, we resorted to performing time-resolved kinetic experiments. SPOP MATH was rapidly mixed with increasing concentrations of dansylated peptides (from 2 to 10 µM for Puc and MacroH2A, and from 2 to 40 µM for PTEN) in a stopped-flow apparatus at 298 K. The binding traces obtained by monitoring the time-resolved fluorescence were satisfactorily fitted to a single exponential equation, allowing calculating the observed rate constants kobs at different peptide concentrations. We then plotted the kobs values over the concentration of dansylated peptide and fitted the data to a simple linear function equation: kobs=kon Peptide+koff where kobs is the observed rate constant; kon and koff are the microscopic association and dissociation rate constants, respectively (Figure 2). The slope and y-axis intercept represent the microscopic association and dissociation rate constant, respectively. To minimize the error associated with the indirect measurement of the dissociation rate constant, we carried out displacement experiments to determine the koff values. The displacement experiments were designed by mixing the preformed complex SPOP MATH-dansylated peptides with a high excess of nondansylated peptide, as described in the Section 4. […] On the basis of these observations, it is possible to conclude that, in the case of binding to MacroH2A and PTEN, there is the presence of an additional step, which escapes detection by stopped-flow experiments and is likely to be negligible in the case of Puc. […] We note that such a case closely resembles the presence of a so-called burst phase, which is frequently observed in protein-folding studies.
Chain of SPOP MATH WT (O43791 1-182): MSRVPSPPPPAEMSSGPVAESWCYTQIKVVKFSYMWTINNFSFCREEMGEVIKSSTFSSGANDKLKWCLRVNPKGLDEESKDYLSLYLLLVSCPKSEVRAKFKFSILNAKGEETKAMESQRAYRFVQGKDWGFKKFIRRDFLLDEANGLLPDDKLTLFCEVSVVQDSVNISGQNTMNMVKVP
as §2

Where a SMILES comes first, the peptide text is derived from it.

Turning to `CC(C)[C@H](NC(=O)[C@H](CCC(=O)O)NC(=O)[C@H](CC(=O)O)NS(=O)(=O)c1cccc2c(N(C)C)cccc12)C(=O)N[C@H](C(=O)N[C@@H](CO)C(=O)N[C@H](C(=O)N[C@H](C(=O)N[C@@H](CO)C(=O)N[C@@H](CO)C(=O)N[C@@H](CO)C(=O)O)[C@@H](C)O)[C@@H](C)O)[C@@H](C)O` [Puc] (HELM PEPTIDE1{[CN(C)c1cccc2c(S(=O)(=O)[*:2])cccc12].D.E.V.T.S.T.T.S.S.S}$$$$V2.0), the Kd (as a rule, the constant that tells how readily two partners part at equilibrium) at SPOP MATH Y88A (kinetic KD from kon and koff) turned out to be 21 ± 4 µM; at SPOP MATH Y125A (kinetic KD from kon and koff) it was 11.7 ± 0.2 µM; at SPOP MATH F134A (kinetic KD from kon and koff) it was 1.7 ± 0.1 µM; at SPOP MATH K135A (kinetic KD from kon and koff), 7.2 ± 0.4 µM; at SPOP MATH R71A (kinetic KD from kon and koff), 3.8 ± 0.1 µM; on SPOP MATH K130A (kinetic KD from kon and koff), 9.5 ± 0.1 µM. Moreover, the Kd at SPOP MATH D131A (kinetic KD from kon and koff) stood at 13.3 ± 0.2 µM; on SPOP MATH WT (read-out: Kinetics KD, WT, from kon (pseudo-first-order) and koff (displacement)) it was 1.4 ± 0.4 µM. The kon – broadly, a measure of how fast the partners come together – worked out at 1.44e+07 ± 800000 M⁻¹ s⁻¹ on SPOP MATH Y88A (stopped-flow, 2 µM MATH domain); 6.71e+06 ± 20000 M⁻¹ s⁻¹ at SPOP MATH Y125A (stopped-flow, 2 µM MATH domain); 9.4e+06 ± 200000 M⁻¹ s⁻¹ on SPOP MATH F134A (stopped-flow, 2 µM MATH domain); 6.3e+06 ± 500000 M⁻¹ s⁻¹ at SPOP MATH K135A (stopped-flow, 2 µM MATH domain); 8.8e+06 ± 500000 M⁻¹ s⁻¹ on SPOP MATH R71A (stopped-flow, 2 µM MATH domain); 1.3e+07 ± 2e+06 M⁻¹ s⁻¹ at SPOP MATH K130A (stopped-flow, 2 µM MATH domain). Moreover, the kon at SPOP MATH D131A (stopped-flow, 2 µM MATH domain) stood at 1.82e+07 ± 100000 M⁻¹ s⁻¹; on SPOP MATH WT (stopped-flow, 2 µM MATH domain, dansylated peptide 2 to 10 µM (Puc, MacroH2A) or 2 to 40 µM (PTEN), 50 mM sodium-HEPES, pH 7.2 (for ionic strength series), five traces averaged, slope of kobs vs peptide) it was 1.9e+07 ± 1e+06 M⁻¹ s⁻¹.
